The Emax is the greatest response seen or fitted, relative to the assay's reference. The term EC50 denotes the midpoint of the concentration-response curve. Low values mean greater potency, high ones weaker potency.

Residue numbers refer to the chain shown, from its start. Like-named read-outs stand apart in the source and are kept apart here. Where a SMILES comes first, the peptide text is derived from it. Bridges are numbered along the chain shown (N, C = ends).

What all share (type): cell-based
One experiment addresses T1, hCTR WT (Homo sapiens, UniProt P30988).
T1 construct: expressed in transfected cells
T1 sequence (P30988 25-474): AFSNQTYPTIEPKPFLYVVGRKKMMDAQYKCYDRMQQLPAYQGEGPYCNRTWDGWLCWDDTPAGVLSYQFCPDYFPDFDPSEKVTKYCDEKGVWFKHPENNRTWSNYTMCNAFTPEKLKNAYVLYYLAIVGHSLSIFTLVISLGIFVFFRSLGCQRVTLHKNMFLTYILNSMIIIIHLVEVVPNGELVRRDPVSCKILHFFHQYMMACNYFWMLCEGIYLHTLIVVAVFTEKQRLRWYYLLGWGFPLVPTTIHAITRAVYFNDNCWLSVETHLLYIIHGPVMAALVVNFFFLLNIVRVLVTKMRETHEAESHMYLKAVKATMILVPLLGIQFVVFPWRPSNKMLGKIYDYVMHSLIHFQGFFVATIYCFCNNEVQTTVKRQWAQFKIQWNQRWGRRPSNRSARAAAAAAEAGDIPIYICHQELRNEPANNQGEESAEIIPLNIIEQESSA
As to the kind of experiment: IP1 accumulation. Particulars: for Emax: read-out: Emax (% WT), SEM. The gist of the method:
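Concentration-response curves were fitted to a 3-parameter logistic model to estimate EC50 and Emax. Cells had been exposed to ligand for 60 min with LiCl, and lysate IP1 determined by HTRF, with normalization to 100 μM ATP.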

In another experiment the target is T2, hCTR F356A (Homo sapiens, UniProt P30988, F356A).
T2 construct: c-Myc (N); expressed in transfected cells
T2 sequence (P30988 25-474 F356A): T1 sequence (P30988 25-474) with F332A
As to the kind of experiment: IP1 accumulation. Particulars: read-out: Emax (% WT), SEM. The gist of the method: (§1)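 Ligand-induced IP1 (60 min, LiCl) measured by HTRF; normalized to 100 μM ATP response.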

A further experiment addresses T3, hCTR T295A (Homo sapiens, UniProt P30988, T295A).
T3 construct: c-Myc (N); expressed in transfected cells
T3 sequence (P30988 25-474 T295A): T1 sequence (P30988 25-474) with T271A
As to the kind of experiment: IP1 accumulation. As to conditions: mean ± S.E.M.; for Emax: IP1 maximal response, SEM. In short, it runs like this: as §1

The next experiment concerns the target T4, hCTR I279A (Homo sapiens, UniProt P30988, I279A).
T4 construct: expressed in transfected cells
T4 sequence (P30988 25-474 I279A): T1 sequence (P30988 25-474) with I255A
As to the kind of experiment: IP1 accumulation. Particulars: mean ± S.E.M.; for Emax: IP1 maximal response, SEM. In short, it runs like this: as §1

The target of another experiment is T5, hCTR W290A (Homo sapiens, UniProt P30988, W290A).
T5 construct: c-Myc (N); expressed in transfected cells
T5 sequence (P30988 25-474 W290A): T1 sequence (P30988 25-474) with W266A
Briefly: ERK1/2 phosphorylation. Particulars: CV1-FlpIn cells, mean ± S.E.M.; for Emax: pERK maximal response. In short, it runs like this:
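First, cells (2.5 × 10^4 per well) were plated and left overnight. Agonist concentration-response data were then scaled to the peak signal given by 10% FBS at 6 min. Finally, a 3-parameter logistic equation yielded EC50 and Emax.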

[1] abbreviates: IP1, CV1-FlpIn cells, 60 min, LiCl.

As for `CC[C@H](C)[C@H](NC(=O)[C@H](C)NC(=O)[C@@H](NC(=O)[C@H](CCC(N)=O)NC(=O)[C@@H]1CCCN1C(=O)[C@H](Cc1ccccc1)NC(=O)[C@@H](NC(=O)[C@H](Cc1c[nH]cn1)NC(=O)[C@H](Cc1ccccc1)NC(=O)[C@H](CCCCN)NC(=O)[C@H](CC(N)=O)NC(=O)[C@H](Cc1ccccc1)NC(=O)[C@H](CC(=O)O)NC(=O)[C@H](CCC(N)=O)NC(=O)[C@@H](NC(=O)[C@H](Cc1ccc(O)cc1)NC(=O)[C@@H](NC(=O)CNC(=O)[C@H](CC(C)C)NC(=O)[C@H](CCSC)NC(=O)[C@@H]1CSSC[C@H](N)C(=O)NCC(=O)N[C@@H](CC(N)=O)C(=O)N[C@@H](CC(C)C)C(=O)N[C@@H](CO)C(=O)N[C@@H]([C@@H](C)O)C(=O)N1)[C@@H](C)O)[C@@H](C)O)[C@@H](C)O)[C@@H](C)O)C(=O)NCC(=O)N[C@H](C(=O)NCC(=O)N[C@@H](C)C(=O)N1CCC[C@H]1C(N)=O)C(C)C` [hCT], the Emax came out at 100 ± 3% on hCTR WT, 69 ± 6% on hCTR F356A, 43 ± 4% on hCTR T295A and 79 ± 7% on hCTR I279A.
As to `CSCC[C@H](NC(=O)CNC(=O)[C@H](CO)NC(=O)[C@H](Cc1ccccc1)NC(=O)[C@H](CCCNC(=N)N)NC(=O)[C@H](Cc1c[nH]cn1)NC(=O)[C@H](Cc1ccccc1)NC(=O)[C@H](CC(N)=O)NC(=O)[C@H](CC(N)=O)NC(=O)[C@H](CC(C)C)NC(=O)[C@H](CC(N)=O)NC(=O)[C@H](CCCNC(=N)N)NC(=O)[C@H](Cc1c[nH]c2ccccc12)NC(=O)[C@H](Cc1ccc(O)cc1)NC(=O)[C@H](C)NC(=O)[C@H](CO)NC(=O)[C@H](CC(C)C)NC(=O)[C@@H](NC(=O)[C@@H]1CSSC[C@H](N)C(=O)N[C@@H](CO)C(=O)N[C@@H](CC(N)=O)C(=O)N[C@@H](CC(C)C)C(=O)N[C@@H](CO)C(=O)N[C@@H]([C@@H](C)O)C(=O)N1)C(C)C)C(=O)NCC(=O)N[C@@H](Cc1ccccc1)C(=O)NCC(=O)N1CCC[C@H]1C(=O)N[C@@H](CCC(=O)O)C(=O)N[C@H](C(=O)N1CCC[C@H]1C(N)=O)[C@@H](C)O` [pCT] (H-CSNLSTCVLSAYWRNLNNFHRFSGMGFGPETP-NH2; disulfide 1-7), the Emax is 28 ± 3% on hCTR W290A; 100 ± 3% at hCTR WT (WT, IP1 maximal response, mean ± S.E.M.); 56 ± 7% on hCTR T295A; 116 ± 10% on hCTR I279A. Besides, the EC50 at hCTR W290A (pERK, three-parameter logistic fit) was 7.41 nM; on hCTR WT (WT, IP1, CV1-FlpIn cells, 60 min, LiCl, mean ± S.E.M.) it was 1.38 nM; at hCTR T295A (setting [1]), 4.57 nM; at hCTR I279A (setting [1]), 6.61 nM.
Regarding `CC(C)C[C@H](NC(=O)[C@H](CCCCN)NC(=O)CNC(=O)[C@H](CC(C)C)NC(=O)[C@@H](NC(=O)[C@@H]1CSSC[C@H](N)C(=O)N[C@@H](CO)C(=O)N[C@@H](CC(N)=O)C(=O)N[C@@H](CC(C)C)C(=O)N[C@@H](CO)C(=O)N[C@@H]([C@@H](C)O)C(=O)N1)C(C)C)C(=O)N[C@@H](CO)C(=O)N[C@@H](CCC(N)=O)C(=O)N[C@@H](CCC(=O)O)C(=O)N[C@@H](CC(C)C)C(=O)N[C@@H](Cc1c[nH]cn1)C(=O)N[C@@H](CCCCN)C(=O)N[C@@H](CC(C)C)C(=O)N[C@@H](CCC(N)=O)C(=O)N[C@H](C(=O)N[C@@H](Cc1ccc(O)cc1)C(=O)N1CCC[C@H]1C(=O)N[C@@H](CCCNC(=N)N)C(=O)N[C@H](C(=O)N[C@@H](CC(N)=O)C(=O)N[C@H](C(=O)NCC(=O)N[C@@H](CO)C(=O)NCC(=O)N[C@H](C(=O)N1CCC[C@H]1C(N)=O)[C@@H](C)O)[C@@H](C)O)[C@@H](C)O)[C@@H](C)O` [sCT], the Emax at hCTR W290A amounted to 38 ± 4%; at hCTR WT, 100 ± 3%; at hCTR F356A (F356A, IP1 maximal response, mean ± S.E.M.), 36 ± 3%; at hCTR T295A, 53 ± 7%; on hCTR I279A it was 97 ± 7%.

Source of the values: paper PMC5908784, “Extracellular loops 2 and 3 of the calcitonin receptor selectively modify agonist binding and efficacy” (Biochemical Pharmacology, 2018).
